According to patent publication US20210221791A1, “COMPOUNDS” (UNIVERSITETET I OSLO, priority 2016, published 2021):
Read-outs that look alike come from different tables or passages of the source.

Tests used:
[1] = zinc-binding ability; known/prior art value; cited from earlier work
VIM-2 = VIM-2 (Escherichia coli, UniProt Q5U7L7); assay type: biochemical; details: purified VIM-2, PD-10 column; EDTA at 100 μM
Method: The eluent used was Chelex-treated HEPES 50 mM buffer, pH 7.5. […] In all experiments, 16 aliquots of 250 μL were taken from the PD-10 column runsout and enzyme activity was analysed. Enzyme activity was measured by adding Nitrocefin as a reporter substrate (final concentration of 50 μM).
To investigate if more extreme time-dependent and concentration-dependent conditions could restore enzyme activity, aliquots having final concentrations of 30 nM column-treated enzyme and 1000 μM Zn^2+ on ice and at room temperature over prolonged time.

K. pneumoniae K66-45 = assay type: cell-based; details: inhibitor 25 mg/L
Method: After plating and grown overnight at 37° C., only single colonies, ignoring any touching the edges of the plate, were counted.
10^9 CFU K66-45 (Mueller-Hinton broth, no selection) was plated and grown overnight, 37° C. Only single colonies, ignoring any touching the edges of the plate, were counted.

[2] = system: P. aeruginosa K34-7 (VIM-2); test: Microbroth dilution MIC of carbapenem with/without inhibitor; assay type: cell-based
Method: (§1) • Plate bacterial strain(s) on appropriate media: • Gram-negative bacteria with ESBLs or carbapenemases: green agar plates with 100 mg/L ampicillin • Gram-negative bacteria without β-lactamases: green agar plates • Gram-positive bacteria (Staphylococci and Enterococci): blood agar plates • Incubate o.n. at 37° C.
(§2) (Should be used within 15 min of preparation). • Dilute the 0.5 McFarland suspension 1:100 into MH broth. […] Plate 10 μl of the dilution on MH agar plates (×2). Incubate o.n. at 37° C., count the colonies and calculate the final CFU/ml inoculum in the plate by multiplying the average number of colonies with 10000 and divide by 2. The final inoculum should be between 3-7×10^5 CFU/ml. • Add 50 μl of the prepared bacterial suspension to each well in the microtiter plate except negative growth control.
(§3) • Calculate the desired concentration-range and volume of the compounds/antibiotics in the assay. […] Dilute the stock solution in MH broth. Make subsequent 2-fold dilutions in MH broth of the desired concentrations if a concentration range is to be tested (remember the extra dilution factor in the assay plate). Always include extra volume for pipetting. Take into consideration stock solutions that are made in buffers that have an effect on bacterial growth (e.g. DMSO).

[3] = system: resistant gram-negative MBL-based bacteria; test: MICx: lowest adjuvant concentration giving carbapenem MIC ≤2 mg/L; assay type: cell-based; details: for adjuvant effect at an inhibitor concentration of 25 mg/L: meropenem, K34-7 and K66-45
[4] = system: Klebsiella pneumoniae strain 50752501 harbouring NDM-1; test: In vivo infection study in neutropenic mice; set-up: species or system Klebsiella pneumoniae; host NMRI mice; details: meropenem alone 33 mg/kg
Method: The purpose of this study was to investigate the synergy between a typical example of the present invention and a state of art carbapenem in a clinically relevant multiresistant Gram-negative bacterial strain harboring a metallo-β-lactamase in the treatment of live mice infected with the bacterial strain.
The mice were rendered neutropenic by injecting 0.5 ml cyclophosphamide solution intraperitoneally 4 days (approximately 200 mg/kg) and 1 day (approximately 100 mg/kg) prior to inoculation.
Fresh overnight colonies from a 5% Horse Blood Agar plate were suspended and diluted in sterile saline to approximately and 10^7 CFU/ml. Mice were inoculated intraperitoneally with 0.5 ml of the suspension. Approximately ½ hr prior to inoculation, mice were treated orally with 45 μl neurophen (20 mg ibuprofen/ml corresponding to approximately 30 mg/kg) as a pain relief.
Mice were treated subcutaneously in the neck region with.
Colony counts were determined from blood and peritoneal fluid at 1 and 5 hrs post inoculation. […] The mice were sacrificed immediately after blood sampling and a total of 2 ml sterile saline was injected i.p. and the abdomen gently massaged before it was opened and fluid sampled with a pipette. Each sample was then 10 fold serial diluted in saline and 20-μl spots, ranging from undiluted to a 10^6 dilution, were applied on agar plates in duplicates. […] All agar plates were incubated 18-22 hrs at 35° C. in ambient air.

[5] = system: resistant clinical isolate of Klebsiella pneumoniae harboring NDM-1; test: Time-kill study with meropenem; assay type: cell-based; details: 4 mg/L meropenem alone; grows beyond starting CFU count
Method: Mueller-Hinton broth (MHB) was warmed from fridge temperature cold. […] A sample of Example 26 was dissolved in DMSO.
The 96-well plates were prepared using a multi-channel pipette, adding […] PBS to columns 2-9, or the required number of dilutions needed in the experiment. Each Inoculum was prepared by picking a single colony from the fresh plate that was disperged into 1 mL MHB, the loop was agitated to ensure all the colony comes off the loop. The tube was Vortex mixed, and a 100 μL aliquot was taken from the tube into 9.9 mL of MHB into the media bottle. […] The procedure was repeated for as many samples needed in the study. Aliquots of 5 mL inoculum were transferred to as many media bottles as needed, e.g. 4 mg/L MEM, 4 mg/L MEM+50 μM test substance, 4 mg/L MEM+100 μM test substance. Then […] aliquots were taken from each culture and added to Column 1 on the 96 well plate, e.g. culture 1: 50 μl into A1, […] into B1 etc. for time point 0 h. Then […] MEM was added into each bottle, followed by the required amount of test substance. The bottles were mixed gently to avoid formation of bubbles, and incubated in a secondary container at 37° C. at 180 rpm. Finally, serial dilutions were performed using multi-channel pipette taking 30 μL for column 1, adding to column 2, mixing well, repeating from column 2 to 3 with clean pipette tips.

[6] = system: K. pneumoniae K66-45 (NDM-1); test: Microbroth dilution MIC of carbapenem with/without inhibitor; assay type: cell-based
Method: as §1, §2, §3

SMILES: c1ccc(CNCc2ccccn2)nc1 [DPA, dipicoylamine]
- pKd [1]: < 8

SMILES: O=C(O)CN(CCN(CC(=O)O)CC(=O)O)CC(=O)O [EDTA, ethylenediaminetetra-acetic acid, reference compound]
- irreversibility of VIM-2 inhibition (VIM-2): did not inhibit VIM-2 irreversibly

SMILES: CN(C[C@H](O)[C@@H](O)[C@H](O)[C@H](O)CO)C(=O)Cc1ccc(NC(=O)CN(CCN(Cc2ccccn2)Cc2ccccn2)Cc2ccccn2)cc1 [Example 25, 2-(4-(2-((2-(bis(pyridin-2-ylmethyl)amino)ethyl)(pyridin-2-ylmethyl)amino)acetamido)phenyl)-N-methyl-N-(2,3,4,5,6-pentahydroxyhexyl)acetamide]
- RF - no of colonies (K. pneumoniae K66-45; MEM 2 mg/L): nc (n.c. = no colonies)
- RF - no of colonies (K. pneumoniae K66-45; MEM 4 mg/L): nc (n.c. = no colonies)
- RF - no of colonies (K. pneumoniae K66-45; MEM 8 mg/L): nc (n.c. = no colonies)

SMILES: OC1O[C@H](Cn2cc(CN(CCN(Cc3ccccn3)Cc3ccccn3)Cc3ccccn3)nn2)[C@H](O)[C@H](O)[C@H]1O (stereo partly shown) [Example 91]
- MIC of meropenem ([2]; P. aeruginosa K34-7 (VIM-2), inhibitor 50 μM): 1

SMILES: O=C(NCCc1ccc(-n2cc(CN(Cc3ccccn3)Cc3ccccn3)nn2)cc1)[C@H]1O[C@H](O)[C@H](O)[C@@H](O)[C@H]1O [Example 101, (2S,3R,4S,5R,6S)—N-(4-(4-((Bis(pyridin-2-ylmethyl)amino)methyl)-1H-1,2,3-triazol-1-yl)phenethyl)-3,4,5,6-tetrahydroxytetrahydro-2H-pyran-2-carboxamide]
- adjuvant concentration range at which efficient [3]: 100 to 150 µM
- adjuvant effect at an inhibitor concentration of 25 mg/L [3]: less activity as an adjuvant

SMILES: O=C(Cc1ccc(-n2cc(CN(Cc3ccccn3)Cc3ccccn3)nn2)cc1)N[C@@H](Cc1cccc(C(=O)O)c1)B(O)O [Example 157, (R)-3-(2-(2-(4-(4-((bis(pyridin-2-ylmethyl)amino)methyl)-1H-1,2,3-triazol-1-yl)phenyl)acetamido)-2-boronoethyl)benzoic acid]
- adjuvant effect at an inhibitor concentration of 25 mg/L [3]: less activity as an adjuvant

SMILES: COC(=O)c1ccc(CN(Cc2ccccn2)Cc2ccccn2)s1 [Example 180, Methyl 5-((bis(pyridin-2-ylmethyl)amino)methyl)thiophene-2-carboxylate]
- adjuvant effect at an inhibitor concentration of 25 mg/L [3]: completely abolishes the adjuvant effect

SMILES: CN(C[C@H](O)[C@@H](O)[C@H](O)[C@H](O)CO)C(=O)c1ccc(CN(Cc2ccccn2)Cc2ccccn2)s1 [Example 182, 5-((bis(pyridin-2-ylmethyl)amino)methyl)-N-methyl-N-((2S,3R,4R,5R)-2,3,4,5,6-pentahydroxyhexyl)thiophene-2-carboxamide]
- adjuvant effect at an inhibitor concentration of 25 mg/L [3]: completely abolishes the adjuvant effect

SMILES: CN(C[C@H](O)[C@@H](O)[C@H](O)[C@H](O)CO)C(=O)c1ccc(CN(Cc2ccccc2)Cc2ccccc2)nc1 [Example 185, 6-((dibenzylamino)methyl)-N-methyl-N-((2S,3R,4R,5R)-2,3,4,5,6-pentahydroxyhexyl)nicotinamide]
- adjuvant effect at an inhibitor concentration of 25 mg/L [3]: completely abolishes the adjuvant effect

SMILES: CN(C[C@H](O)[C@@H](O)[C@H](O)[C@H](O)CO)C(=O)c1ccc(CN(Cc2ccccc2)Cc2ccccn2)nc1 [Example 187, 6-((benzyl(pyridin-2-ylmethyl)amino)methyl)-N-methyl-N-((2S,3R,4R,5R)-2,3,4,5,6-pentahydroxyhexyl)nicotinamide]
- adjuvant effect at an inhibitor concentration of 25 mg/L [3]: completely abolishes the adjuvant effect

SMILES: COC(=O)[C@@H](C)NC(=O)[C@@H](C)NC(=O)Cn1cc(CN(Cc2ccccn2)Cc2ccccn2)nn1 [Example 194, Methyl (2-(4-((bis(pyridin-2-ylmethyl)amino)methyl)1H-1,2,3-triazol-1-yl)acetyl)-D-alanyl-D-alaninate, reference compound]
- adjuvant concentration range at which efficient [3]: 100 to 150 µM

SMILES: c1ccc(CN(Cc2ccccn2)Cc2ccccn2)nc1 [TPA, N,N,N-tris(2-pyridylmethyl) amine]
- pKd [1]: about 12

SMILES: c1ccc(CN(CCN(Cc2ccccn2)Cc2ccccn2)Cc2ccccn2)nc1 [TPEN, N,N,N′,N′-tetrakis(2-pyridylmethyl) ethylenediamine, reference compound]
- irreversibility of VIM-2 inhibition (VIM-2): irreversibly inhibited

SMILES: C[C@@H](O)[C@H]1C(=O)N2C(C(=O)O)=C(S[C@@H]3CN[C@H](C(=O)N(C)C)C3)[C@H](C)[C@H]12 [meropenem, reference compound]
- lower CFU levels compared to vehicle treatment ([4]; blood): 2.5 log10
- lower CFU levels compared to vehicle treatment ([4]; peritoneal fluid): 2.2 log10
- time after which CFU starts to increase [5]: about 5 hours
- MIC ([6]; Klebsiella pneumoniae, read-out: MIC of MEM in the absence of Example 26, K. pneumoniae K66-45): > 32 µg/mL
- MIC Value in K66-45 (MIC of carbapenem) ([6]; carbapenem alone, K. pneumoniae NDM-1): 32 to 64 µg/mL
- MIC value in K34-7 (MIC of carbapenem) ([2]; carbapenem alone, P. aeruginosa VIM-2): 32 to 64 µg/mL
